Reference: US7956041B2, “Prophylactic and therapeutic agent of diabetes mellitus” (Ajinomoto Co., Inc., priority 2002, dated 2011)

Tests used:
Male Wistar rats [1] = assay: Test Example 1B: excretion action of urine sugar in rat; type: in vivo; settings: oral administration, 24 hours
Protocol: Male Wistar rats aged 5 weeks (purchased from Charles River Japan, Inc.) were acclimatized in metabolic cages for one week, for use at this experiment. The test compounds suspended in olive oil were prepared into solutions to a dose of 5 ml per 1 kg rat body weight. After the rats were starved for 4 hours, the test compounds were orally given at 10, 30 and 100 mg/kg to the rats at 11 am. Immediately after dosing until 24 hours later, urine was collected. The volume of urine was measured. Then, urine glucose concentration was assayed by glucose oxidase method, to calculate the glucose excretion into urine per individual per day. As a positive control, 3-(5-benzo[b]furanyl)-2′-(6-o-methoxycarbonyl-β-D-glucopyranosyloxy)-6′-hydroxy-4′-methylpropiophenone [under a different name of 3-(benzo[b]furan-5-yl)-2′,6′-dihydroxy-4′-methylpropiophenone 2′-o-(6-o-methoxycarbonyl-β-D-glucopyranoside)] was used.

Male Wistar rats [2] = assay: Test Example 1: evaluation of urine sugar excretion action in rats; type: in vivo, rat; settings: 100 mg/kg p.o. in olive oil, urine collected 24 hours, per individual per day
Protocol: Male Wistar rats aged 5 weeks (purchased from Charles River Japan, Inc.) were acclimatized in metabolic cages for one week, for use at this experiment. The test compounds suspended in olive oil were prepared into a 20 mg/ml solution to a dose of 5 ml per 1 kg rat body weight.
After the rats were starved for 4 hours, the test compounds were orally given at 100 mg/kg to the rats at 11 am. Immediately after dosing until 24 hours later, urine was collected. The volume of urine was measured. Then, urine sugar concentration was assayed by glucose oxidase method, to calculate the glucose excretion into urine per individual per day.

[3] = test system: glucose-loaded rats (Wistar rats); assay: Example I: blood glucose time course after oral glucose loading in rats; type: in vivo, rat; settings: glucose 1 g/kg p.o., FIG. 1; for Pattern of glycemic suppression at increased dose: glibenclamide 2 mg/kg, inhibitor A 60 mg/kg
Protocol: Wistar rats (age of 7 weeks; male) were divided into groups with matched body weights. After 17-hour starvation, glucose was orally given at 1 g/kg to the animals. Immediately after the administration, the inhibitor A of renal glucose reabsorption or the inhibitor B of renal glucose reabsorption (A at 30 mg/kg or 60 mg/kg; B at 30 mg/kg or 80 mg/kg) or glibenclamide (1 mg/kg or 2 mg/kg) or nateglinide (50 mg/kg or 80 mg/kg) was orally given. Additionally, a group on the combined use of both of an inhibitor of renal glucose reabsorption and a hypoglycemic agent was also prepared. A vehicle was orally given to a control group after glucose administration.
Blood glucose was measured in a time course.

[4] = test system: Type 2 diabetic model GK rats; assay: Example III: blood glucose on day 25 of once daily dosing in GK rats; type: in vivo, rat; settings: once daily p.o., FIG. 4
Protocol: Type 2 diabetic model GK rats (age of 7 weeks; male) were divided into groups with matched blood glucose levels and body weights, for once daily oral administration of the inhibitor A of renal glucose reabsorption (30 mg/kg) or glibenclamide at 3 or 6 mg/kg. Further, a group given with a combination of the inhibitor A of renal glucose reabsorption at 30 mg/kg and glibenclamide at 3 mg/kg was prepared. These agents were orally given once daily at the same time period as in the group administered with a single one agent. Only a vehicle was given orally to a control group. On day 25 after the start of administration, blood glucose was assayed sequentially, to compare the groups in terms of the resulting blood glucose levels.

[5] = test system: glucose-loaded mice (KK mice); assay: Example II: blood glucose time course after oral glucose loading in KK mice; type: in vivo, mouse; settings: glucose 1 g/kg p.o., FIG. 3; for Blood glucose 30 minutes after glucose loading / Blood glucose 60 minutes after glucose loading / Blood glucose 2 hours after glucose loading and thereafter: metformin 200 mg/kg, inhibitor A 30 mg/kg p.o., vs control; for Pattern of glycemic suppression at elevated dose: metformin 300 mg/kg, inhibitor A 45 mg/kg
Protocol: KK mice (age of 25 weeks; male) fed with a commercially available high-calories feed for breeding (CMF; Oriental Yeast) were divided into groups with matched body weights. After starvation for 17 hours, glucose was orally given at 1 g/kg. Immediately thereafter, the inhibitor A of renal glucose reabsorption (30 mg/kg or 45 mg/kg) or metformin (200 mg/kg or 300 mg/kg) was orally given. Additionally, a group given with the inhibitor A of renal glucose reabsorption (30 mg/kg) and metformin (200 mg/kg) was prepared. A vehicle was orally given to a control group after glucose dosing.
Blood glucose level was assayed in a time course.

[6] = test system: Type 2 diabetes model Zucker diabetic fatty rats; assay: Example V: insulin content in pancreas of Zucker diabetic fatty rats (ELISA); type: in vivo, rat; settings: twice daily p.o., day 39, starved 18 h, inhibitor A 30 mg/kg and/or metformin 200 mg/kg, FIG. 5
Protocol: Type 2 diabetes model Zucker diabetic fatty rats (age 15 weeks) were divided into groups with matched blood glucose levels and body weights. Subsequently, the inhibitor A of renal glucose reabsorption at 30 mg/kg or metformin at 200 mg/kg was orally given twice daily. Further, a group to be on a combined use of the inhibitor A of renal glucose reabsorption (30 mg/kg) and metformin (200 mg/kg) was prepared. The agents were orally given twice daily at the same time period as in the case of the groups administered with a single one of these agents. Only a vehicle was orally given twice daily to the animals in a control group. On day 39 from the start of administration, the animals were starved for 18 hours. Then, pancreas was resected from the animals, for the assay of insulin in pancreas homogenates by ELISA, to compare the groups in terms of insulin content in pancreas.
Zucker diabetic fatty rat is a type 2 diabetic model animal, where the sustainment of hyperglycemic conditions induces a high concentration of glycated hemoglobin so that the aging of the model animal involves the decrease of the insulin content in pancreas.

[7] = glibenclamide 1 mg/kg and/or inhibitor A 30 mg/kg p.o., vs vehicle
[8] = glibenclamide 3 mg/kg and/or inhibitor A 30 mg/kg

| Structure (SMILES) | Urine sugar excretion (Male Wistar rats [2]) [mg] | Blood glucose immediately after glucose loading (30 minutes) [3, 7] | Pattern of glycemic suppression at increased dose [3] | Blood glucose level on day 25 [4, 8] | Blood glucose 30 minutes after glucose loading [5] | Blood glucose 60 minutes after glucose loading [5] | Blood glucose 2 hours after glucose loading and thereafter [5] | Pattern of glycemic suppression at elevated dose [5] | Insulin content in pancreas [6] | other results |
| --- | --- | --- | --- | --- | --- | --- | --- | --- | --- | --- |
| CCc1ccc(Cc2c(OC3OC(COC(=O)OC)C(O)C(O)C3O)nn(C(CF)CF)c2C(F)(F)F)cc1 [Production Example 2B, 4′-[(4′-ethylphenyl)methyl]-1′-(1′,3′-difluoro-2′-propyl)-5′-(trifluoromethyl)-1H-pyrazole-3′-o-(6-o-methoxycarbonyl-β-D-glucopyranoside)] |  |  |  |  |  |  |  |  |  | Excreted urine sugar (Male Wistar rats [1]; Dose 10 mg/kg): 136 mg; Excreted urine sugar (Male Wistar rats [1]; Dose 30 mg/kg): 272 mg; Excreted urine sugar (Male Wistar rats [1]; Dose 100 mg/kg): 524 mg |
| CCc1ccc(Cc2c(OC3OC(COC(=O)OC)C(O)C(O)C3O)nn(C3CCC3)c2C(F)(F)F)cc1 [Production Example 2, 1′-cyclobutyl-4′-[(4-ethylphenyl)methyl]-5′-trifluoromethyl-1H-pyrazole-3′-o-(6-carbomethoxy)-β-D-glucopyranoside] | 656 |  |  |  |  |  |  |  |  |  |
| COc1ccc(Cl)cc1C(=O)NCCc1ccc(S(=O)(=O)NC(=O)NC2CCCCC2)cc1 [glibenclamide] |  | did not suppress hyperglycemia immediately after glucose loading | did not change changed the pattern of glycemic suppression | no difference was observed from the vehicle-dosed group in terms of the blood glucose levels |  |  |  |  |  | Blood glucose 120 minutes after glucose loading and thereafter [3, 7]: lowered blood glucose 120 minutes after glucose loading and thereafter; Blood glucose level on day 25 ([4]; glibenclamide 6 mg/kg): did not produce any difference in blood glucose level from the vehicle-dosed group |
| CCc1ccc(Cc2c(OC3OC(COC(=O)OC)C(O)C(O)C3O)nn(C3CCCC3)c2C(F)(F)F)cc1 [Production Example 4, 1′-cyclopentyl-4′-[(4-ethylphenyl)methyl]-5′-trifluoromethyl-1H-pyrazole-3′-o-(6-carbomethoxy)-β-D-glucopyranoside] | 452 |  |  |  |  |  |  |  |  |  |
| CCc1ccc(Cc2c(O[C@@H]3O[C@H](CO)[C@@H](O)[C@H](O)[C@H]3O)nn(C3CCC3)c2C(F)(F)F)cc1 [1′-cyclobutyl-4′-[(4-ethylphenyl)methyl]-5′-trifluoromethyl-1H-pyrazole-3′-o-β-D-glucopyranoside] |  | suppressed hyperglycemia observed in the vehicle group immediately after glucose loading | The pattern of glycemic suppression did not change even when the dose was elevated | significantly lowered, compared with the group given the vehicle | could suppress hyperglycemia 30 minutes and 60 minutes after glucose loading | could suppress hyperglycemia 30 minutes and 60 minutes after glucose loading | could not suppress the blood glucose level 2 hours later and thereafter | the pattern of glycemic suppression did not change even when the dose was elevated | no difference was observed in insulin content in spleen |  |
| CN(C)C(=N)N=C(N)N [metformin, reference compound] |  |  |  |  | did not suppress the increase of blood glucose in the mice 30 minutes after glucose loading | suppressed the increase 60 minutes later and thereafter | suppressed the increase 60 minutes later and thereafter | The pattern of glycemic suppression did not change even when the dose was elevated | no difference was observed in insulin content in spleen |  |
